Like-named read-outs stand apart in the source and are kept apart here.
Columns and labels:
Candida albicans [1] = experiment: Activity of compounds (I) against vaginal candidosis in rats; type: in vivo, Female Wistar rats; details: 336 h, oral once a day for two days from day of infection, active at the 14th day after infection
Procedure: Experiment A: Activity of compounds (I) against vaginal candidosis in rats Female Wistar rats of ± 100 g body weight were used. They were ovariectomized and hysterectomized and after three weeks of recovery, 100 μg of oestradiol undecylate in sesame oil was given subcutaneously once a week for 3 consecutive weeks. The thus induced pseudooestrus was controlled by microscopic examination of vaginal smears. Food and water were left available ad libitum. The rats were infected intravaginally with 8.10^5 cells of Candida albicans, grown on Sabouraud broth for 48 hours at 37° C. and diluted with saline. The date of infection varied from day +25 to day +32 after surgical intervention, depending on the appearance of signs of induced pseudo-oestrus. The drugs under investigation were administered orally once a day for two days starting from the day of infection. For each experiment there were placebo treated controls. The results were assessed by taking vaginal smears with sterile swabs on several days after the infection. The swabs were put into Sabouraud broth in petri-dishes and incubated for 48 hours at 37° C. If no growth of Candida albicans occured, i.e., when the animals were negative at the end of the experiment, this was due to drug administration because it never happened in placebo treated controls. The tables I and II below give the lowest oral dose of the drug under investigation which was found active at the 14th day after infection.

Candida albicans [2] = experiment: Activity of compounds (I) against crop candidosis in turkeys; type: in vivo; details: medicated feed for 13 consecutive days from day of infection, crops of 50% of animals completely negative for Candida albicans; for Crop candidosis in Turkeys: ED50 in mg/kg of feed.: Table I
Procedure: Experiment B: Activity of compounds (I) against crop candidosis in turkeys Turkeys of 14 days old were infected in the crop with 4·10^6 Candida albicans cells, grown on Sabouraud broth for 48 hours at 37° C. and diluted with saline. The volume of the inoculum was 1 ml. The drug under investigation were premixed in 500 mg of lacton and thereafter admixed in 1000 g of meal without any additives. The concentration of the drug under investigation in the meal was expressed in mg/kg. The animals were given the medicated feed for 13 consecutive days starting on the day of infection. At the end of the experiment all animals were sacrificed. At autopsy the crops were removed, emptied and grinded in an ultra-turrax mixer in 15 ml of sterile saline. Colony counting was done on Sabouraud agar and the results given in Tables I and Ii represent the ED50, i.e., the dose of the drug whereby the crops of 50% of the animals were completely negative for Candida albicans.

[3] = Table I, read-out: Vaginal candidosis in rats: lowest effective dose
[4] = Table II, read-out: Vagingal candidosis in rats: lowest effective dose

Cc1nn(C(C)C)c(=O)n1-c1ccc(OC[C@H]2CO[C@](Cn3ccnc3)(c3ccc(Cl)cc3Cl)O2)cc1 (relative stereo)
minimal effective dose (Candida albicans [1]; [3]): 5 mg/kg

CCSc1nccn1-c1ccc(OC[C@H]2CO[C@](Cn3ccnc3)(c3ccc(Cl)cc3Cl)O2)cc1 (relative stereo)
minimal effective dose (Candida albicans [1]; [3]): 5 mg/kg

CSc1nncn1-c1ccc(OC[C@H]2CO[C@](Cn3ccnc3)(c3ccc(Cl)cc3Cl)O2)cc1 (relative stereo)
Crop candidosis in Turkeys: ED50 in mg/kg of feed. (Candida albicans [2]): 8 mg/kg of feed | minimal effective dose (Candida albicans [1]; [3]): 10 mg/kg

Cc1ncnn1-c1ccc(OC[C@H]2CO[C@](Cn3ccnc3)(c3ccc(Cl)cc3Cl)O2)cc1 (relative stereo)
Crop candidosis in Turkeys: ED50 in mg/kg of feed. (Candida albicans [2]): 8 mg/kg of feed | minimal effective dose (Candida albicans [1]; [3]): 1.25 mg/kg

CCn1nc(C)n(-c2ccc(OC[C@H]3CO[C@](Cn4ccnc4)(c4ccc(Cl)cc4Cl)O3)cc2)c1=O (relative stereo)
minimal effective dose (Candida albicans [1]; [3]): 2.5 mg/kg

Cc1nnc([S+](C)[O-])n1-c1ccc(OC[C@H]2CO[C@](Cn3ccnc3)(c3ccc(Cl)cc3Cl)O2)cc1 (relative stereo)
Crop candidosis in Turkeys: ED50 in mg/kg of feed. (Candida albicans [2]): 16 mg/kg of feed | minimal effective dose (Candida albicans [1]; [3]): 10 mg/kg

CC(C)Sc1nccn1-c1ccc(OC[C@H]2CO[C@](Cn3ccnc3)(c3ccc(Cl)cc3Cl)O2)cc1 (relative stereo)
Crop candidosis in Turkeys: ED50 in mg/kg of feed. (Candida albicans [2]): 31 mg/kg of feed

CC(C)n1ncn(-c2ccc(OC[C@H]3CO[C@](Cn4ccnc4)(c4ccc(Cl)cc4Cl)O3)cc2)c1=O (relative stereo)
minimal effective dose (Candida albicans [1]; [3]): < 10 mg/kg

CCc1ncnn1-c1ccc(OC[C@H]2CO[C@](Cn3ccnc3)(c3ccc(Cl)cc3Cl)O2)cc1 (relative stereo)
Crop candidosis in Turkeys: ED50 in mg/kg of feed. (Candida albicans [2]): 8 mg/kg of feed | minimal effective dose (Candida albicans [1]; [3]): 5 mg/kg

Clc1ccc([C@@]2(Cn3ccnc3)OC[C@H](COc3ccc(-n4cccn4)cc3)O2)c(Cl)c1 (relative stereo)
Crop candidosis in Turkeys: ED50 in mg/kg of feed. (Candida albicans [2]): 16 mg/kg of feed | minimal effective dose (Candida albicans [1]; [3]): 2.5 mg/kg

Clc1ccc(C2(Cn3ccnc3)OCC(COc3cccc(-n4ccnc4)c3)O2)c(Cl)c1 (stereo not drawn)
minimal effective dose (Candida albicans [1]; [4]): 2.5 mg/kg

Cc1n[nH]c(=O)n1-c1ccc(OC[C@H]2CO[C@](Cn3ccnc3)(c3ccc(Cl)cc3Cl)O2)cc1 (relative stereo)
minimal effective dose (Candida albicans [1]; [3]): < 10 mg/kg

Clc1ccc([C@@]2(Cn3ccnc3)OC[C@H](COc3ccc(-n4cccc4)cc3)O2)c(Cl)c1 (relative stereo)
Crop candidosis in Turkeys: ED50 in mg/kg of feed. (Candida albicans [2]): 125 mg/kg of feed | minimal effective dose (Candida albicans [1]; [3]): 2.5 mg/kg

Cc1ccn(-c2ccc(OC[C@H]3CO[C@](Cn4ccnc4)(c4ccc(Cl)cc4Cl)O3)cc2)n1 (relative stereo)
minimal effective dose (Candida albicans [1]; [3]): 2.5 mg/kg

Cc1nccn1-c1ccc(OC[C@H]2CO[C@](Cn3ccnc3)(c3ccc(Cl)cc3Cl)O2)cc1 (relative stereo)
Crop candidosis in Turkeys: ED50 in mg/kg of feed. (Candida albicans [2]): 125 mg/kg of feed | minimal effective dose (Candida albicans [1]; [3]): 10 mg/kg

CCOc1nncn1-c1ccc(OC[C@H]2CO[C@](Cn3ccnc3)(c3ccc(Cl)cc3Cl)O2)cc1 (relative stereo)
Crop candidosis in Turkeys: ED50 in mg/kg of feed. (Candida albicans [2]): 31 mg/kg of feed | minimal effective dose (Candida albicans [1]; [3]): 2.5 mg/kg

CCCn1ncn(-c2ccc(OC[C@H]3CO[C@](Cn4ccnc4)(c4ccc(Cl)cc4Cl)O3)cc2)c1=O (relative stereo)
minimal effective dose (Candida albicans [1]; [3]): < 10 mg/kg

Clc1ccc(C2(Cn3cncn3)OCC(COc3ccc(-n4ccnc4)cc3)O2)c(Cl)c1 (stereo not drawn)
Crop candidosis in Turkeys: ED50 in mg/kg in feed (Candida albicans [2]; Table II): 8 mg/kg in feed | minimal effective dose (Candida albicans [1]; [4]): 1.25 mg/kg

Clc1ccc([C@@]2(Cn3ccnc3)OC[C@H](COc3ccc(-n4cnnn4)cc3)O2)c(Cl)c1 (relative stereo)
Crop candidosis in Turkeys: ED50 in mg/kg of feed. (Candida albicans [2]): 31 mg/kg of feed

CSc1ncc(C)n1-c1ccc(OC[C@H]2CO[C@](Cn3ccnc3)(c3ccc(Cl)cc3Cl)O2)cc1 (relative stereo)
Crop candidosis in Turkeys: ED50 in mg/kg of feed. (Candida albicans [2]): 31 mg/kg of feed

CSc1nnc(C)n1-c1ccc(OC[C@H]2CO[C@](Cn3ccnc3)(c3ccc(Cl)cc3Cl)O2)cc1 (relative stereo)
minimal effective dose (Candida albicans [1]; [3]): 2.5 mg/kg

CSc1nc(C)n(-c2ccc(OC[C@H]3CO[C@](Cn4ccnc4)(c4ccc(Cl)cc4Cl)O3)cc2)n1 (relative stereo)
minimal effective dose (Candida albicans [1]; [3]): 2.5 mg/kg

CSc1ncn(-c2ccc(OC[C@H]3CO[C@](Cn4ccnc4)(c4ccc(Cl)cc4Cl)O3)cc2)n1 (relative stereo)
Crop candidosis in Turkeys: ED50 in mg/kg of feed. (Candida albicans [2]): 16 mg/kg of feed | minimal effective dose (Candida albicans [1]; [3]): 1.25 mg/kg

CSc1nccn1-c1ccc(OC[C@H]2CO[C@](Cn3ccnc3)(c3ccc(Cl)cc3Cl)O2)cc1 (relative stereo)
Crop candidosis in Turkeys: ED50 in mg/kg of feed. (Candida albicans [2]): 31 mg/kg of feed | minimal effective dose (Candida albicans [1]; [3]): 5 mg/kg

Clc1ccc([C@@]2(Cn3ccnc3)OC[C@H](COc3ccc(-n4ncnc4-c4ccccc4)cc3)O2)c(Cl)c1 (relative stereo)
minimal effective dose (Candida albicans [1]; [3]): 10 mg/kg

C[S+]([O-])c1nncn1-c1ccc(OC[C@H]2CO[C@](Cn3ccnc3)(c3ccc(Cl)cc3Cl)O2)cc1 (relative stereo)
minimal effective dose (Candida albicans [1]; [3]): 2.5 mg/kg

Cc1nn(C)c(=O)n1-c1ccc(OC[C@H]2CO[C@](Cn3ccnc3)(c3ccc(Cl)cc3Cl)O2)cc1 (relative stereo)
minimal effective dose (Candida albicans [1]; [3]): 1.25 mg/kg

COc1ccc([C@@]2(Cn3ccnc3)OC[C@H](COc3ccc(-n4ccnc4)cc3)O2)cc1 (relative stereo)
minimal effective dose (Candida albicans [1]; [4]): 5 mg/kg

Sc1nnnn1-c1ccc(OC[C@H]2CO[C@](Cn3ccnc3)(c3ccc(Cl)cc3Cl)O2)cc1 (relative stereo)
minimal effective dose (Candida albicans [1]; [3]): 2.5 mg/kg

Clc1ccc([C@@]2(Cn3ccnc3)OC[C@H](COc3ccc(-n4ccnc4-c4ccccc4)cc3)O2)c(Cl)c1 (relative stereo)
Crop candidosis in Turkeys: ED50 in mg/kg of feed. (Candida albicans [2]): 125 mg/kg of feed | minimal effective dose (Candida albicans [1]; [3]): 5 mg/kg

Clc1ccc([C@@]2(Cn3ccnc3)OC[C@H](COc3ccc(-n4cncn4)cc3)O2)c(Cl)c1 (relative stereo)
Crop candidosis in Turkeys: ED50 in mg/kg of feed. (Candida albicans [2]): 16 mg/kg of feed | minimal effective dose (Candida albicans [1]; [3]): 1.25 mg/kg

CCCSc1nccn1-c1ccc(OC[C@H]2CO[C@](Cn3ccnc3)(c3ccc(Cl)cc3Cl)O2)cc1 (relative stereo)
Crop candidosis in Turkeys: ED50 in mg/kg of feed. (Candida albicans [2]): 31 mg/kg of feed | minimal effective dose (Candida albicans [1]; [3]): 5 mg/kg

Clc1ccc([C@@]2(Cn3ccnc3)OC[C@H](COc3ccc(-n4ccnc4)cc3)O2)c(Cl)c1 (relative stereo)
Crop candidosis in Turkeys: ED50 in mg/kg of feed. (Candida albicans [2]): 8 mg/kg of feed | minimal effective dose (Candida albicans [1]; [3]): 1.25 mg/kg

CS(=O)(=O)c1nccn1-c1ccc(OC[C@H]2CO[C@](Cn3ccnc3)(c3ccc(Cl)cc3Cl)O2)cc1 (relative stereo)
minimal effective dose (Candida albicans [1]; [3]): 5 mg/kg

CCn1ncn(-c2ccc(OC[C@H]3CO[C@](Cn4ccnc4)(c4ccc(Cl)cc4Cl)O3)cc2)c1=O (relative stereo)
Crop candidosis in Turkeys: ED50 in mg/kg of feed. (Candida albicans [2]): 31 mg/kg of feed | minimal effective dose (Candida albicans [1]; [3]): 5 mg/kg
